Source: ChEMBL document CHEMBL3045197, “Design and synthesis of new 2-aryl, 3-benzyl-(1,3-oxazolidine or 1,3-thiazolidine)-4-ones as selective cyclooxygenase (COX-2) inhibitors” (Med Chem Res, 2010)
pIC50: −log10 of the molar value.

Legend:
[1] = target: Prostaglandin G/H synthase 2 (Ovis aries) (UniProt P79208); assay: Inhibition of Ovis aries (sheep) COX-2 by Chemoiluminescence assay
Ovis aries = species: Ovis aries; assay: Selectivity index, ratio of IC50 for Ovis aries (sheep) COX-1 to IC50 for Ovis aries (sheep) COX-2
[2] = target: Prostaglandin G/H synthase 1 (Ovis aries) (UniProt P05979); assay: Inhibition of Ovis aries (sheep) COX-1 by Chemoiluminescence assay

Prostaglandin G/H synthase 2 (Ovis aries), sequence (P79208 whole entry, looked up): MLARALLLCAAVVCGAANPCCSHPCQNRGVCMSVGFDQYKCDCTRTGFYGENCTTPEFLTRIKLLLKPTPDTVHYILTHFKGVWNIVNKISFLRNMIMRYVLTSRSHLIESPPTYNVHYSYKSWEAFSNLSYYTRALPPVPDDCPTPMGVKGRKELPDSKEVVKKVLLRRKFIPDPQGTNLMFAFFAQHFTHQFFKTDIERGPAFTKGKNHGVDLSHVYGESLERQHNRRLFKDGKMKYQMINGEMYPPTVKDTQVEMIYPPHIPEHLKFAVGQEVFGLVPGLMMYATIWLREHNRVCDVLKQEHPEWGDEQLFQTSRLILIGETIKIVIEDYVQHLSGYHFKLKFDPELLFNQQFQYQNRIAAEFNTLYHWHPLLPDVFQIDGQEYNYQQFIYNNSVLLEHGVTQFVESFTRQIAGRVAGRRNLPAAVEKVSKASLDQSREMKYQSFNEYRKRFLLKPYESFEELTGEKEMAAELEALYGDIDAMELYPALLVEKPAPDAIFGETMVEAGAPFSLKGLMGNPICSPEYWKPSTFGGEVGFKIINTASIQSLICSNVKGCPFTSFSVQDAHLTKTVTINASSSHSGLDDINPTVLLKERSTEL

Row | Compound | pIC50 [1] | Ratio IC50 (Ovis aries) | pIC50 [2]
1 | CS(=O)(=O)c1ccc(C2SCC(=O)N2Cc2ccccc2)cc1 (configuration not stated) | 6.49 | > 312 | < 4.00
2 | CS(=O)(=O)c1ccc(C2OCC(=O)N2Cc2ccccc2)cc1 (configuration not stated) | 6.68 | > 476 | < 4.00
3 | CC1SC(c2ccc(S(C)(=O)=O)cc2)N(Cc2ccccc2)C1=O (racemic) | 6.47 | 222 | 4.12
4 | CC1OC(c2ccc(S(C)(=O)=O)cc2)N(Cc2ccccc2)C1=O (racemic) | 6.57 | 318 | 4.07
